Here are results for seven compounds from US11739101B2, “Bifunctional degraders of hematopoietic progenitor kinase and therapeutic uses thereof” (Nurix Therapeutics, Inc., priority 2020, dated 2023).

The target in the assay is T1, HPK1 (Homo sapiens, UniProt Q92918).
T1 construct: A HiBiT tag was introduced by CRISPR on the N terminus of HPK1 in Jurkat cells; host or cells: Jurkat (ATCC TIB-152), monoclonal CRISPR HiBiT knock-in line
T1 sequence (Q92918 whole entry): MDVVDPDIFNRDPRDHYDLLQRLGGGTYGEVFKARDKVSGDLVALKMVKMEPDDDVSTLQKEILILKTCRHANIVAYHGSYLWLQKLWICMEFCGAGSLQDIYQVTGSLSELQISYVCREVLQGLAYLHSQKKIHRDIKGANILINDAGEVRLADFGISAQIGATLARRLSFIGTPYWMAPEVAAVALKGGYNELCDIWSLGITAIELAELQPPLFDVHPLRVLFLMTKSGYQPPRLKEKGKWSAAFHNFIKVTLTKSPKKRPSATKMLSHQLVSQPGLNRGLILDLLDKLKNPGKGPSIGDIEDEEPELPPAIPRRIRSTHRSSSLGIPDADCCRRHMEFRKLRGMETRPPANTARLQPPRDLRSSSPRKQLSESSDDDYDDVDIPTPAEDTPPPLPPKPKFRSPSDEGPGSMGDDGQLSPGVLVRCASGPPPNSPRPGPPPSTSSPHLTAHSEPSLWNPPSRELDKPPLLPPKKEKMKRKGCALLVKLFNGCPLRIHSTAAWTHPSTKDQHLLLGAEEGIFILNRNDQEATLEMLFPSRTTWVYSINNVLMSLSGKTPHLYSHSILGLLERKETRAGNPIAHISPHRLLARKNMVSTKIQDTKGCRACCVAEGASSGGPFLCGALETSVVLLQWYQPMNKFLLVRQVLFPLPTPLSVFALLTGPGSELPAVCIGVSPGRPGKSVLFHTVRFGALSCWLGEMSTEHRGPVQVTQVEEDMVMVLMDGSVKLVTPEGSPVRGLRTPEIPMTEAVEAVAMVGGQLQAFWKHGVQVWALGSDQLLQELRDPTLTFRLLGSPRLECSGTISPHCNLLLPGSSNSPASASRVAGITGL
The assay is described as follows: HPK1 Cellular HiBiT Degradation Assay. It is filed as cell-based. Conditions: HiBiT-tagged HPK1 Jurkat cells, 24 hours, 10 uM to 0.1 nM; Dmax = 100 minus lowest % HPK1 remaining vs DMSO vehicle. The method, boiled down: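 Jurkat cells with CRISPR N-terminal HiBiT-tagged HPK1 were exposed to an 11-point 3.16-fold dilution series, 10 uM to 0.1 nM final, for 24 hours at 37° C./5% CO2. HPK1 was read by HiBiT lytic luminescence against DMSO as 100% and parental cells as background. Dmax is 100 minus the lowest % remaining from a four-parameter fit, with a parallel CellTiter-Glo viability check.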
Compound `Cc1cc(F)c(Nc2nc(-c3ccc4c(c3)N([C@H]3C[C@@H](N5CCCCC5)C3)C(=O)C43CCN(C(=O)C4CCN(Cc5ccc(C(=O)NCCNc6cccc7c6C(=O)N(C6CCC(=O)NC6=O)C7=O)nc5)CC4)CC3)cc3ncn(C(C)C)c23)cc1C(=O)NC(C)C` (stereo partly shown) [Example 89, N-(2-{[2-(2,6-dioxopiperidin-3-yl)-1,3-dioxoisoindol-4-yl]amino}ethyl)-5-[(4-{[6-(4-{[2-fluoro-5-(isopropylcarbamoyl)-4-methylphenyl]amino}-3-isopropylimidazo[4,5-c]pyridin-6-yl)-2-oxo-1-[(s,3s)-3-(piperidin-1-yl)cyclobutyl]spiro[indole-3,4′-piperidin]-1′-yl]carbonyl}piperidin-1-yl)methyl]pyridine-2-carboxamide] came in with a Dmax of more than 65%. In turn, `Cc1cc(F)c(Nc2nc(-c3ccc4c(c3)N([C@H]3C[C@@H](N5CCCCC5)C3)C(=O)C43CCN(C(=O)CN4CCC(c5ccc(C(=O)NCCNc6cccc7c6C(=O)N(C6CCC(=O)NC6=O)C7=O)cc5)CC4)CC3)cc3ncn(C(C)C)c23)cc1C(=O)NC(C)C` (stereo partly shown) [Example 90, 5-[(6-{1′-[2-(4-{4-[(2-{[2-(2,6-dioxopiperidin-3-yl)-1,3-dioxoisoindol-4-yl]amino}ethyl)carbamoyl]phenyl}piperidin-1-yl)acetyl]-2-oxo-1-[(1s,3s)-3-(piperidin-1-yl)cyclobutyl]spiro[indole-3,4′-piperidin]-6-yl}-3-isopropylimidazo[4,5-c]pyridin-4-yl)amino]-4-fluoro-N-isopropyl-2-methylbenzamide] yielded a Dmax of 45 to 65%. As to `Cc1cc(F)c(Nc2nc(-c3ccc4c(c3)N([C@H]3C[C@@H](N5CCCCC5)C3)C(=O)C43CCN(C(=O)c4ccc(CN5CCN(c6ccc7c(c6)C(=O)N(C6CCC(=O)NC6=O)C7=O)CC5)cc4)CC3)cc3ncn(C(C)C)c23)cc1C(=O)NC(C)C` (stereo partly shown) [Example 91, 5-[(6-{1′-[4-({4-[2-(2,6-dioxopiperidin-3-yl)-1,3-dioxoisoindol-5-yl]piperazin-1-yl}methyl)benzoyl]-2-oxo-1-[(1s,3s)-3-(piperidin-1-yl)cyclobutyl]spiro[indole-3,4′-piperidin]-6-yl}-3-isopropylimidazo[4,5-c]pyridin-4-yl)amino]-4-fluoro-N-isopropyl-2-methylbenzamide], the Dmax fell in the range of 45 to 65%. The value for `Cc1cc(F)c(Nc2nc(-c3ccc4c(c3)N([C@H]3C[C@@H](N5CCCCC5)C3)C(=O)C43CCN(C(=O)c4ccc(C(=O)N5C6CCC5CN(c5ccc7c(c5)C(=O)N(C5CCC(=O)NC5=O)C7=O)C6)cc4)CC3)cc3ncn(C(C)C)c23)cc1C(=O)NC(C)C` (stereo partly shown) [Example 93, 5-({6-[1′-(4-{3-[2-(2,6-dioxopiperidin-3-yl)-1,3-dioxoisoindol-5-yl]-3,8-diazabicyclo[3.2.1]octane-8-carbonyl}benzoyl)-2-oxo-1-[(1s,3s)-3-(piperidin-1-yl)cyclobutyl]spiro[indole-3,4′-piperidin]-6-yl]-3-isopropylimidazo[4,5-c]pyridin-4-yl}amino)-4-fluoro-N-isopropyl-2-methylbenzamide] was 45 to 65%.

`Cc1cc(F)c(Nc2nc(-c3ccc4c(c3)N([C@H]3C[C@@H](N5CCCCC5)C3)C(=O)C43CCN(C(=O)c4ccc(C(=O)N5CCN(c6cccc7c6C(=O)N(C6CCC(=O)NC6=O)C7=O)CC5)cc4)CC3)cc3ncn(C(C)C)c23)cc1C(=O)NC(C)C` (stereo partly shown) [Example 95, 5-({6-[1′-(4-{4-[2-(2,6-dioxopiperidin-3-yl)-1,3-dioxoisoindol-4-yl]piperazine-1-carbonyl}benzoyl)-2-oxo-1-[(1s,3s)-3-(piperidin-1-yl)cyclobutyl]spiro[indole-3,4′-piperidin]-6-yl]-3-isopropylimidazo[4,5-c]pyridin-4-yl}amino)-4-fluoro-N-isopropyl-2-methylbenzamide]: the Dmax lay in the range of 45 to 65%. With `Cc1cc(F)c(Nc2nc(-c3ccc4c(c3)N([C@H]3C[C@@H](N5CCCCC5)C3)C(=O)C43CCN(C(=O)[C@H]4CC[C@@H](C(=O)N5CCC(Oc6cccc7c6C(=O)N(C6CCC(=O)NC6=O)C7=O)CC5)CC4)CC3)cc3ncn(C(C)C)c23)cc1C(=O)NC(C)C` (stereo partly drawn) [Example 96, 4-fluoro-N-isopropyl-5-[(3-isopropyl-6-{2-oxo-1-[(1s,3s)-3-(piperidin-1-yl)cyclobutyl]-1′-[(1s,4s)-4-[4-({2-[(3S)-2,6-dioxopiperidin-3-yl]-1,3-dioxoisoindol-4-yl}oxy)piperidine-1-carbonyl]cyclohexanecarbonyl]spiro[indole-3,4′-piperidin]-6-yl}imidazo[4,5-c]pyridin-4-yl)amino]-2-methylbenzamide], the Dmax was in the range of 45 to 65%. As to `Cc1cc(F)c(Nc2nc(-c3ccc4c(c3)N([C@H]3C[C@@H](N5CCCCC5)C3)C(=O)C43CCN(C(=O)c4ccc(N(C)C5CCN(c6ccc7c(c6)C(=O)N(C6CCC(=O)NC6=O)C7=O)CC5)cc4)CC3)cc3ncn(C(C)C)c23)cc1C(=O)NC(C)C` (stereo partly shown) [Example 97, 5-{[6-(1′-{4-[(1-{2-[2,6-dioxopiperidin-3-yl]-1,3-dioxoisoindol-5-yl}piperidin-4-yl)(methyl)amino]benzoyl}-2-oxo-1-[(1s,3s)-3-(piperidin-1-yl)cyclobutyl]spiro[indole-3,4′-piperidin]-6-yl)-3-isopropylimidazo[4,5-c]pyridin-4-yl]amino}-4-fluoro-N-isopropyl-2-methylbenzamide], the maximal degradation (Dmax) lay within 45 to 65%.
